Laboratory results as given in US20030013658A1, “Small peptides and methods for treatment of asthma and inflammation” (Hisatek, LLC, priority 1997, published 2003).
“Also recorded” adds a separate entry of the source. Where no end group is shown, it is not given here. The star is where a group is joined. For = O=C*

Tested on: OVA-sensitized/challenged mice
Assay: OVA-induced bronchial asthma mouse model (Standard/Resolution protocols, 1-3 month), airway eosinophils and mucus plugs
Assay type: in vivo
Text: The OVA-induced Bronchial Asthma Mouse Model for Inhibition of Mast Cell Degranulation
Reagents: Crystalline OVA was obtained from Pierce Chem. Co. (Rockford, Ill.) aluminum potassium sulfate (alum) from Sigma Chem. Co. (St. Louis, Mo.), pyrogen-free distilled water from Baxter, Healthcare Corporation (Deerfield, Ill.), 0.9% sodium chloride (normal saline) from Lymphomed (Deerfield, Ill.) and Trappsol™ HPB-L100 (aqueous hydroxypropyl beta cyclodextrin; 45 wt/vol % aqueous solution) from Cyclodextrin Technologies Development, Inc. (Gainesville, Fla.). The OVA (500 μg/ml in normal saline) was mixed with equal volumes of 10% (wt/vol) alum in distilled water. The mixture (pH 6.5 using 10 N NaOH) after incubation for 60 minutes at room temperature underwent centrifugation at 750 g for 5 minutes; the pellet was resuspended to the original volume in distilled water and used within one hour.
The selective 5-lipoxtgenase inhibitor, Zileuton (N-[1-benzo[b]thien-2-ylethyl]-N-hydroxyurea; J. Pharmacol Exp Ther. 1991; 256: 929-937), was kindly provided by Drs. Bell and George W. Carter (Abbott Laboratories, Abbott Part, Ill.). Zileuton was dissolved in Trappsol.™. Histatek, Inc. (Seattle, Wash.) provided the mast cell degranulation inhibitor, f-Met-Leu-Phe-Phe (“HK-X”).
Female BALB/c […] (6-8 wk of age at purchase; D and K, Seattle Wash.) were housed under conventional conditions for the studies.
Allergen Immunization/Challenge Protocols: Mice received an i.p. injection of 0.2 ml (100 μg) of OVA with alum on the different protocols of Standard (FIG. 5A) and Resolution (FIG. 5B) (J. Exp Med. 1996; 184: 1483-1494). According to the different protocols, mice were anesthetized with 0.2 ml i.p. of ketamine (0.44 mg/ml)/xylazine (6.3 mg/ml) in normal saline before receiving an intranasal (i.n.) does of 100 μg OVA in 0.05 ml normal saline and an i.n. dose of 50 μg OVA in 0.05 ml normal saline separately on different days. Two control groups were used. Accordingly, the first group received normal saline with alum i.p. and normal saline without alum i.n.; the second group received OVA with alum i.p., OVA without alum i.n., and normal saline, alone.
The trachea and left lung (the right lung is used for bronchoalveolar lavage (“BAL”)) were obtained and fixed in 10% neutral formaldehyde solution at room temperature for 6˜15 h. After being embedded in paraffin, the tissues were cut into 5-um sections and processed with the different staining or immunolabling further. Discombe's eosinophil staining was used for counting the cell numbers with the counterstain of methylene blue. The eosinophil number per unit airway area (2,200 μm^2) was determined by morphometry (J. Pathol. 1992; 166: 395-404; Am Rev Respir Dis. 1993; 147:448-456). Fibrosis was identified with the Masson's trichrome staining. Airway mucus was identified by the following staining method: methylene blue, hematoxylin and eosin, mucicarmine, alcian blue, and alcian blue/periodic acid-Schiff (PAS) reaction (Troyer, H., “Carbohydrates” in Principles and Techniques of Histochemistry, Little, Brown and Company, Boston, Mass., 1980: 89-121; Sheehan, D. C., et al., “Carbohydrates” in Theory and Practice of Histotechnology, Battle Press, Columbus, Ohio, 1980: 159-179) Mucin was stained with mucicarmine solution; metanil yellow counterstain was employed. Acidic mucin and sulfated mucosubstances were stained with alcian blue, pH 2.5; nuclear fast red counterstain was used. Neutral and acidic mucosubstances were identified by alcian blue, pH 2.5, and PAS reaction. The degree of mucus plugging of the airways (0.5-0.8 mm in diameter) was also assessed by morphometry. The percent occlusion of airway diameter by mucus was classified on a semiquantitative scale from 0 to 4+ as described in Figure Legends. The histologic and morphometric analyses were performed by individuals blinded to the protocol design. […]

f-Met-Leu-Phe-Phe (For-MLFF) [Example 9]
AIRWAY INFLUX OF EOSINOPHILS (%) (1 month): 14.20% | % of plug of airway (28 days): 19% | PERCENTAGE OF EOSINOPHILS IN AIRWAY TISSUE (28 days of treatment): 14.2% | MUCUS PLUG SCORE IN AIRWAYS (28 days, semiquantitative scale 0 to 4+): 1.4 | mucus accumulation / mucus release in airway (HK-X given before i.n. OVA, morphometry, FIG. 6, listed as HK-X): inhibits mucus accumulation in the airway; also recorded: airway mucus release in the airway (AW) lumen is markedly reduced | infiltration of the interstitial tissue by eosinophils (compared to OVA-challenge alone, FIG. 6C): infiltration of the interstitial tissue by eosinophils is also reduced | formation of mucus plugs / mucus production in small airways (doses of 5 μg/kg and 10 μg/kg, FIG. 7): Both doses significantly reduce the mucus production in small airways | reduction of airway eosinophils compared with Zileuton (one month): reduced eosinophils comparably at one month | reduction of airway eosinophils compared with Zileuton (two and three months): much more beneficially at two and three months
